Data on 30 compounds can be found in patent publication US7419980B2, “Fused-aryl and heteroaryl derivatives and methods of their use” (Wyeth, priority 2003, dated 2008).

Broadly, the inhibition is the relative decrease from the control value, in per cent. The EC50 is the midpoint of the concentration-response curve.

SMILES strings stand for the structures. Where a name gives a salt, the structure may show the parent alone.

T1 sequence (P23975 whole entry): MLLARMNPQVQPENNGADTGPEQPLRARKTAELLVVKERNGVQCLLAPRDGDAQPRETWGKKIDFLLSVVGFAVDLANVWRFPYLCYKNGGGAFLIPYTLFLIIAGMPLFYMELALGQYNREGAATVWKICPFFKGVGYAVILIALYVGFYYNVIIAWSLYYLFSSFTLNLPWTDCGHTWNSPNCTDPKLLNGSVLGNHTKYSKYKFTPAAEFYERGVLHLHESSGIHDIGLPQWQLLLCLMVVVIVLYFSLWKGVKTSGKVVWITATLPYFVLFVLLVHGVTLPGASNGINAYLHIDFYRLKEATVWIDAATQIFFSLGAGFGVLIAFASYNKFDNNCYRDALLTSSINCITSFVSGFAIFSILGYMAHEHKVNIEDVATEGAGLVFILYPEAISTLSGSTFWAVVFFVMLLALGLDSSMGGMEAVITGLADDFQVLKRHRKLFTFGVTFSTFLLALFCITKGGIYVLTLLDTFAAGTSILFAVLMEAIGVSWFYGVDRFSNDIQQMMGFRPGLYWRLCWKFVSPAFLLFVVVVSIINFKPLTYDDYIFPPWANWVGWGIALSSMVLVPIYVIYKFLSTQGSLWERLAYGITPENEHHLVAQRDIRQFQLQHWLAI

One assay addresses T1, human hNET (Homo sapiens, UniProt P23975).
T1 construct: expressed in transfected cells; host or cells: MDCK-Net6 (MDCK cells stably transfected with hNET)
Description: Norepinephrine (NE) uptake assay in MDCK-Net6 cells. It counts as cell-based. Conditions: 1 μM test compound; [3H]NE uptake, MDCK-Net6 cells; read-out: % Inhibition @ 1 μM (hNET). The method, then:
MDCK-Net6 cells, stably transfected with human hNET (Pacholczyk, T., R. D. Blakely, and S. G. Amara, Nature, 1991, 350(6316): p. 350-4) were cultured in growth medium containing high glucose DMEM (Gibco, Cat. No. 11995), 10% FBS (dialyzed, heat-inactivated, US Bio-Technologies, Lot FBD1129HI) and 500 μg/ml G418 (Gibco, Cat. No. 10131). Cells were plated at 300,000/T75 flask and cells were split twice weekly. The JAR cell line (human placental choriocarcinoma) was purchased from ATCC (Cat. No. HTB-144). The cells were cultured in growth medium containing RPMI 1640 (Gibco, Cat. No. 72400), 10% FBS (Irvine, Cat. No. 3000), 1% sodium pyruvate (Gibco, Cat. No. 1136) and 0.25% glucose. Cells were plated at 250,000 cells/T75 flask and split twice weekly. For all assays, cells were plated in Wallac 96-well sterile plates (PerkinElmer, Cat. No. 3983498).
On day 1, cells were plated at 3,000 cells/well in growth medium and maintained in a cell incubator (37° C., 5% CO2). On day 2, growth medium was replaced with 200 μl of assay buffer (25 mM HEPES; 120 mM NaCl; 5 mM KCl; 2.5 mM CaCl2; 1.2 mM MgSO4; 2 mg/ml glucose (pH 7.4, 37° C.)) containing 0.2 mg/ml ascorbic acid and 10 μM pargyline. Plates containing cells with 200 μl of assay buffer were equilibrated for 10 minutes at 37° C. prior to addition of compounds. A stock solution of desipramine was prepared in DMSO (10 mM) and delivered to triplicate wells containing cells for a final tert concentration of 1 μM. Data from these wells were used to define non-specific NE uptake (minimum NE uptake). Test compounds were prepared in DMSO (10 mM) and diluted in assay buffer according to tert range (1 to 10,000 nM). Twenty-five microliters of assay buffer (maximum NE uptake) or tert compound were added directly to triplicate wells containing cells in 200 μl of assay buffer. The cells in assay buffer with tert compounds were incubated for 20 minutes at 37° C. To initiate the NE uptake, [^3H]NE diluted in assay buffer (120 nM final assay concentration) was delivered in 25 μl aliquots to each well and the plates were incubated for 5 minutes (37° C.). The reaction was terminated by decanting the supernatant from the plate. The plates containing cells were washed twice with 200 μl assay buffer (37° C.) to remove free radioligand. The plates were then inverted, left to dry for 2 minutes, then reinverted and air-dried for an additional 10 minutes. The cells were lysed in 25 μl of 0.25 N NaOH solution (4° C.), placed on a shake table and vigorously shaken for 5 minutes. After cell lysis, 75 μl of scintillation cocktail was added to each well and the plates were sealed with film tape. The plates were returned to the shake table and vigorously shaken for a minimum of 10 minutes to ensure adequate partitioning of organic and aqueous solutions. The plates were counted in a Wallac Microbeta counter (PerkinElmer) to collect the raw cpm data.
For each experiment, a data stream of cpm values collected from the Wallac Microbeta counter was downloaded to a Microsoft Excel statistical application program. Calculations of EC50 values were made using the transformed-both-sides logistic dose response program written by Wyeth Biometrics Department. The statistical program uses mean cpm values from wells representing maximum binding or uptake (assay buffer) and mean cpm values from wells representing minimum binding or uptake ((1 μM desipramine (hNET) or 1 μM paroxetine (hSERT)). Estimation of the EC50 value was completed on a log scale and the line was fit between the maximum and minimum binding or uptake values. All graphic data representation was generated by normalizing each data point to a mean percent based on the maximum and minimum binding or uptake values. The EC50 values reported from multiple experiments were calculated by pooling the raw data from each experiment and analyzing the pooled data as one experiment.
Take `OC1(C(CN2CCNCC2)c2cc3ccccc3s2)CCCCC1` (stereo not shown) [Example 261, 1-[1-(1-benzothien-2-yl)-2-piperazin-1-ylethyl]cyclohexanoldihydrochloride]: the inhibition at 1 µM amounted to 60%. Regarding `OC1(C(CN2CCNCC2)c2cccc3ccccc23)CCCCCC1` (stereo not shown) [Example 271, 1-[1-(1-naphthyl)-2-piperazin-1-ylethyl]cycloheptanol Dihydrochloride], the inhibition at 1 µM was determined as 27%. The same measure, in the same setting: with `OC1(C(CN2CCNCC2)c2ccc3ccccc3c2)CCCCC1` (stereo not shown) [Example 63, 1-[1-(2-naphthyl)-2-piperazin-1-ylethyl]cyclohexanol Dihydrochloride] the figure was 26%; with `OC1(C(CN2CCOCC2)c2ccc3ccccc3c2)CCC1` (stereo not shown) [Example 109, 1-[2-morpholin-4-yl-1-(2-naphthyl)ethyl]cyclobutanol Hydrochloride], 0%.

On to `OC1(C(CN2CCNCC2)c2cccc3ccccc23)CCCCCCC1` (stereo not shown) [Example 269, 1-[1-(1-naphthyl)-2-piperazin-1-ylethyl]cyclooctanol Dihydrochloride], for which the inhibition at 1 µM was found to be 41%. Still for that read-out and setting: with `OC1(C(CN2CCNCC2)c2cccnc2)CCCCC1` (stereo not shown) [Example 337, 1-(2-piperazin-1-yl-1-pyridin-3-ylethyl)cyclohexanol Trihydrochloride] the figure was 4.8%; with `OC1(C(CN2CCNCC2)c2cnc3ccccc3c2)CCCCC1` (stereo not shown) [Example 262, 1-(2-piperazin-1-yl-1-quinolin-3-ylethyl)cyclohexanol Dihydrochloride], 19%. The same measure, in the same setting: the result for `CC1CCC(O)(C(CN2CCNCC2)c2cccc3ccccc23)CC1` (stereo not shown) [Example 97, 4-methyl-1-[1-(1-naphthyl)-2-piperazin-1-ylethyl]cyclohexanol Dihydrochloride] reads 5%. The same measure, in the same setting: the result for `CN1CCC(O)(C(CN2CCNCC2)c2ccc3ccccc3c2)CC1` (stereo not shown) [Example 59, 1-methyl-4-[1-(2-naphthyl)-2-piperazin-1-ylethyl]piperidin-4-ol Dihydrochloride] reads 33%; that for `CN1CCN(CC(c2cccc3ccccc23)C2(O)CCCCCCC2)CC1` (stereo not shown) [Example 270, 1-[2-(4-methylpiperazin-1-yl-1-(1-naphthyl)ethyl]cyclooctanol Dihydrochloride], 13%; that for `CCC(O)(CC)C(CN1CCNCC1)c1cccc2ccccc12` (stereo not shown) [Example 53, 3-ethyl-2-(1-naphthyl)-1-piperazin-1-ylpentan-3-ol Dihydrochloride], 34%.

As to `CN1CCN(CC(c2cccc3ccccc23)C2(O)CCC(C(C)(C)C)CC2)CC1` (stereo not shown) [Example 100, 4-tert-butyl-1-[2-(4-methylpiperazin-1-yl)-1-(1-naphthyl)ethyl]cyclohexanol Dihydrochloride], the inhibition at 1 µM came out at 4%.

As for `CC1CCC(O)(C(CN2CCN(C)CC2)c2cccc3ccccc23)CC1` (stereo not shown) [Example 333, 4-methyl-1-[2-(4-methylpiperazin-1-yl)-1-(1-naphthyl)ethyl]cyclohexanol Dihydrochloride], the inhibition at 1 µM is 16%. Still for that read-out and setting: the result for `OC1(C(CN2CCNCC2)c2cccc3ccccc23)CCCCC1` (stereo not shown) [Example 21, 1-[1-(1-naphthyl)-2-piperazin-1-ylethyl]cyclohexanol Dihydrochloride] reads 86%.

With `CC(C)(C)C1CCC(O)(C(CN2CCNCC2)c2cccc3ccccc23)CC1` (stereo not shown) [Example 76, 4-tert-butyl-1-[1-(1-naphthyl)-2-piperazin-1-ylethyl]cyclohexanol Dihydrochloride], the inhibition at 1 µM was determined as 22%.

Turning to `OC1(C(CN2CCNCC2)c2cc(Br)cs2)CCCCC1` (stereo not shown) [Example 281, 1-[1-(4-bromothien-2-yl)-2-piperazin-1-ylethyl]cyclohexanol Dihydrochloride], the inhibition at 1 µM came to 91%. Same read-out and setting: with `CN1CCN(CC(c2cccc3ccccc23)C2(O)CCCC2)CC1` (stereo not shown) [Example 56, 1-[2-(4-methylpiperazin-1-yl)-1-(1-naphthyl)ethyl]cyclopentanol Dihydrochloride] the figure was 36%; with `OC1(C(CN2CCNCC2)c2csc3ccc(Cl)cc23)CCCCC1` (stereo not shown) [Example 260, 1-[1-(5-chloro-1-benzothien-3-yl)-2-piperazin-1-ylethyl]cyclohexanol Dihydrochloride], 75%. For the compound `COc1ccc2scc(C(CN3CCNCC3)C3(O)CCCCC3)c2c1` (stereo not shown) [Example 279, 1-[1-(5-methoxy-1-benzothien-3-yl)-2-piperazin-1-ylethyl]cyclohexanol Dihydrochloride], the inhibition at 1 µM came out at 16%.

As for `CCC(O)(CC)C(CN1CCN(C)CC1)c1cccc2ccccc12` (stereo not shown) [Example 89, 3-ethyl-1-(4-methylpiperazin-1-yl)-2-(1-naphthyl)pentan-3-ol Dihydrochloride], the inhibition at 1 µM stood at 15%. On the same count and under the same terms, the result for `OC1(C(CN2CCOCC2)c2ccc3ccccc3c2)CCCCC1` (stereo not shown) [Example 106, 1-[2-morpholin-4-yl-1-(2-naphthyl)ethyl]cyclohexanol Hydrochloride] reads 2%; that for `OC1(C(CN2CCNCC2)c2ccc3ccccc3c2)CCC1` (stereo not shown) [Example 5, 1-[1-(2-naphthyl)-2-piperazin-1-ylethyl]cyclobutanol Dihydrochloride], 97%; that for `OC1(C(CN2CCNCC2)c2ccc(Cl)s2)CCCCC1` (stereo not shown) [Example 142, 1-[1-(5-chlorothien-2-yl)-2-piperazin-1-ylethyl]cyclohexanol Dihydrochloride], 51%. The same measure, in the same setting: with `CCC1CCC(O)(C(CN2CCN(C)CC2)c2cccc3ccccc23)CC1` (stereo not shown) [Example 328, 4-ethyl-1-[2-(4-methylpiperazin-1-yl)-1-(1-naphthyl)ethyl]cyclohexanol Dihydrochloride] the figure was 5.1%.

Staying with this assay, now noted: MDCK-Net6, read-out: % Inhibition @ 1 μM (hNET).
With `CN1CCN(C[C@H](c2csc(Cl)c2)C2(O)CCCCC2)CC1` [Example 259, 1-[(1S)-1-(5-chlorothien-3-yl)-2-(4-methylpiperazin-1-yl)ethyl]cyclohexanol Dihydrochloride], the inhibition at 1 µM worked out at 20%. On to `NC1CCN(CC(c2csc(Cl)c2)C2(O)CCCCC2)CC1` (stereo not shown) [Example 145, 1-[2-(4-aminopiperidin-1-yl)-1-(5-chlorothien-3-yl)ethyl]cyclohexanol Dihydrochloride], for which the inhibition at 1 µM amounted to 38%.

Take `CN1CCN(C[C@@H](c2csc(Cl)c2)C2(O)CCCCC2)CC1` [Example 258, 1-[(1R)-1-(5-chlorothien-3-yl)-2-(4-methylpiperazin-1-ylethyl]cyclohexanol Dihydrochloride]: the inhibition at 1 µM turned out to be 91%. For the compound `OC1(C(CN2CCNCC2)c2ccsc2Cl)CCCCC1` (stereo not shown) [Example 156, 1-[1-(2-chlorothien-3-yl)-2-piperazin-1-ylethyl]cyclohexanol Dihydrochloride], the inhibition at 1 µM is 55%.

For `CN1CCN(CC(c2csc(Cl)c2)C2(O)CCCCC2)CC1` (stereo not shown) [Example 159, 1-[1-(5-chlorothien-3-yl)-2-(4-methylpiperazin-1-yl)ethyl]cyclohexanol Dihydrochloride], the inhibition at 1 µM turned out to be 88%.

The same assay, now with this note: [3H]NE uptake, MDCK-Net6 cells.
`OC1(C(CN2CCNCC2)c2ccsc2Cl)CCCCC1` (stereo not shown) [Example 156, 1-[1-(2-chlorothien-3-yl)-2-piperazin-1-ylethyl]cyclohexanol Dihydrochloride] gave an EC50 of 720 nM. Take `OC1(C(CN2CCNCC2)c2cccc3ccccc23)CCCCC1` (stereo not shown) [Example 21, 1-[1-(1-naphthyl)-2-piperazin-1-ylethyl]cyclohexanol Dihydrochloride]: the concentration giving a half-maximal response (EC50) is 57 nM. Compound `CN1CCN(CC(c2csc(Cl)c2)C2(O)CCCCC2)CC1` (stereo not shown) [Example 159, 1-[1-(5-chlorothien-3-yl)-2-(4-methylpiperazin-1-yl)ethyl]cyclohexanol Dihydrochloride] yielded an EC50 of 25 nM. Take `OC1(C(CN2CCNCC2)c2cccc(Cl)c2)CCCCC1` (stereo not shown) [Example 1, 1-[1-(3-chlorophenyl)-2-piperazin-1-ylethyl]cyclohexanol Dihydrochloride]: the EC50 was 18 nM. The same measure, in the same setting: the result for `OC1(C(CN2CCNCC2)c2ccc3ccccc3c2)CCC1` (stereo not shown) [Example 5, 1-[1-(2-naphthyl)-2-piperazin-1-ylethyl]cyclobutanol Dihydrochloride] reads 160 nM.
